≈ marks a conversion by molar mass, not a printed value. Where “and” joins values, the source holds several entries; their conditions need not be identical. Equal values may be shown once.
Tests used:
[1] = tested on: Micrococcus luteus IFO 13867; test: Antibacterial activity (MIC) against Micrococcus luteus IFO 13867; type: cell-based; conditions: IFO13867, 37° C., 18 to 20 hours
Protocol: (§1) The antibacterial activity against Gram-positive bacteria of the compound of the present invention was measured according to a standard method of Nippon Kagaku Ryoho Gakkai [Nippon Kagaku Ryoho Gakkaishi (Journal of the Chemical therapy of Japan), 29, 76(1981)].
(§2) As for gram-positive bacteria, after cultivation in Meuller Hinton broth medium (made by Difco Co., Ltd.), there was prepared a bacterial suspension for inoculation containing about 10^6 of the bacteria per 1 ml of the Meuller Hinton broth medium. On the other hand, the test compound was added to Mueller Hinton agar medium (made by Difco Co., Ltd.) so as to give agar plate medium containing test samples which are twofold serial diluted. Then, the above-mentioned bacterial suspension for inoculation was streaked to each agar medium for about 2 cm with a looped nichrome wire (inner diameter: about 1 mm).
(§3) After that the each agar plate medium was cultured at 37° C. for 18 to 20 hours, the growth of the test bacteria was determined.

[2] = tested on: Bacillus subtilis IFO 3134; test: Antibacterial activity (MIC) against Bacillus subtilis IFO 3134; type: cell-based; conditions: IFO3134, 37° C., 18 to 20 hours
Protocol: as §1, §2, §3

[3] = tested on: Staphylococcus aureus IFO 12732; test: Antibacterial activity (MIC) against Staphylococcus aureus IFO 12732; type: cell-based; conditions: IFO12732, 37° C., 18 to 20 hours
Protocol: as §1, §2, §3

[4] = tested on: Nycobacterium smegmatis ATCC 607; test: Antibacterial activity (MIC) against acid-fast bacteria; type: cell-based; conditions: 37° C., 40 to 42 hours
Protocol: As for acid-fast bacteria, after cultured in glycerol broth medium, there was prepared a bacterial suspension for inoculation containing about 10^6 of the bacteria per 1 ml of the medium. On the other hand, there were prepared some glycerol Czapek agar plating media with adding the test compounds, and thereto the bacterial suspension for inoculation was streaked.

[5] = molecular target: T1, epidermal growth factor receptor-tyrosine kinase complex (Homo sapiens, UniProt P00533); test: Tyrosine kinase inhibiting activity (A-431 membrane preparation, EGF-stimulated); type: biochemical; conditions: 1 μM in the reaction mixture; read-out: Tyrosine kinase inhibition rate
T1 construct: The membrane preparation was employed in the following measurement without solubilization; endogenous in cells; host or cells: A-431 (ATCC CRL1555), membrane preparation, not solubilized
Protocol: Tyrosine kinase inhibiting activity of the compound of the present invention was measured referring to a method for measuring tyrosine kinase activity by G. Carpenter or by S. Cohen et al. [J. Biol. Chem., 254, 4884(1979); J. Biol. Chem., 257, 1528(1982)].
Cell line A-431 derived from human carcinoma (ATCC CRL1555) was cultured at 37° C. under the condition of 5% CO2 in Dulbecco's modified Eagle's medium (made by NISSUE PHARMACEUTICAL CO., LTD.) containing 10% by volume fetal bovine serum, 50 μg/ml of streptomycin, 50 IU/ml of penicillin G and 50 μg/ml of kanamycin. […] The membrane preparation was employed in the following measurement without solubilization.
A test compound dissolved in dimethylsulfoxide (hereinafter referred to as "DMSO") was added to a mixture of 20 mM of N-2-hydroxyethylpiperazine-N'-2-ethanesulfonic acid buffer (pH 7.4), 1 mM of MnCl2, 7.5 μg of bovine serium albumin and the membrane preparation (10 μg as protein). After incubation at 0° C. for 5 minutes, 100 ng of epidermal growth factor (hereinafter referred to as "EGF") was added thereto and the mixture was further incubated at 0° C. for 15 minutes. [γ-^32 P]ATP (3000 Ci/mmol, 0.1 μCi) was added thereto to make final volume of 70 μl. After incubation at 0° C. for 15 minutes, 50 μl of the reaction mixture was soaked into Whatman 3 MM filter paper (made by Whatman Ltd.) and immediately the reaction was stopped by an aqueous solution of 10% by weight trichloroacetic acid containing 10 mM sodium pyrophosphate. The filter paper was sufficiently washed with the same solution and then washed with ethanol, and dried. Radioactivity present in the filter paper was measured by liquid scintillation counter (A). Also, radioactivity was measured in case of the reaction without EGF (B), the reaction without the test compound (C), and the reaction without both EGF and the test compound (D) as a control.
Tyrosine kinase inhibition rate (%) was calculated by the following equation. [formula]

[6] = molecular target: T2, reverse transcriptase derived from Moloney-Murine Leukemia Virus (M-MLV) (Moloney murine leukemia virus, UniProt P03355); test: Inhibiting activity against reverse transcriptase derived from M-MLV; type: biochemical; conditions: read-out: Inhibition rate (reverse transcriptase derived from M-MLV); for inhibition at 1 µM: 1 μM in the reaction mixture
T2 construct: reverse transcriptase derived from Moloney-Murine Leukemia Virus; purchased Pharmacia K. K
Protocol: There was found the following point by using reverse transcriptase derived from Moloney-Murine Leukemia Virus (hereinafter referred to as "M-MLV").
The compound of the present invention was dissolved in DMSO to give a 100 mM solution thereof. Then, the solution was diluted with distilled water containing DMSO to give a solution of the test compound having a defined concentration. A mixed ratio of DMSO and distilled water was adjusted so that the concentration of DMSO at this time is 10% by volume and a final concentration of DMSO at the beginning of a reaction is 1% by volume.
The thus prepared solution of the test compound was mixed with a solution containing 50 mM of Tris--HCl buffer (pH 8.3), 8 mM of MgCl2, 30 mM of NaCl, 50 mM of dithiothreitol (made by Wako Pure Chemical Industries Ltd.), 0.2 mM of thymidine-5'-triphosphate (made by Pharmacia K. K.) and 6 U/ml of reverse transciptase derived from M-MLV (made by Pharmacia K. K.), and preincubated at 37° C. for 30 minutes. After there was added thereto 10 μg/ml of polyadenylic acid (made by PL Biochemicals Co., Ltd.), 0.01 U/ml of oligodeoxy thymidylic acid (made by Pharmacia K. K.) and 10 μCi/ml of [methyl-^3 H] thymidine-5'-triphosphate (made by Amersham Japan Co., Ltd., 47 Ci/mmol) to give a reaction mixture, the mixture was further incubated at 37° C. for 30 minutes, followed by cooling with ice to stop the reaction.
The radioactivity incorporated into deoxyribonucleic acids was measured according to the method of Linteril et al (Science 170, 447 to 449 (1967)). A defined volume of the reaction mixture was soaked into DE-81 filter paper (made by Whatman Ltd.), the filter paper was washed with 5% by weight of Na2 HPO4 solution for three times, and with distilled water and ethanol successively, and then dried. Radioactivity contained in the filter paper was measured by liquid scintillation counter to give the each radioactivity of the test solution groups.
On the other hand, the same procedure as above was carried out using DMSO-distilled water without the test compound instead of using the test solution, to give the value of radioactivity of a control group.
Reverse transcriptase derived from M-MLV inhibition rate (%) was calculated by the following equation. [formula]

[7] = molecular target: T3, 5-lipoxygenase (Cavia porcellus, UniProt A0A286X958); test: 5-Lipoxygenase inhibiting activity (5-HETE formation, cytosol of peritoneal exudate cells); type: biochemical, Hartley guinea pigs; conditions: 10 μM in the reaction mixture; read-out: Inhibition rate (5-lipoxygenase)
T3 construct: The cytosol fraction was used as an enzyme solution; from tissue; host or cells: peritoneal exudate cells of casein-injected Hartley guinea pigs, 105,000×g cytosol
T3 sequence (A0A286X958 1-674): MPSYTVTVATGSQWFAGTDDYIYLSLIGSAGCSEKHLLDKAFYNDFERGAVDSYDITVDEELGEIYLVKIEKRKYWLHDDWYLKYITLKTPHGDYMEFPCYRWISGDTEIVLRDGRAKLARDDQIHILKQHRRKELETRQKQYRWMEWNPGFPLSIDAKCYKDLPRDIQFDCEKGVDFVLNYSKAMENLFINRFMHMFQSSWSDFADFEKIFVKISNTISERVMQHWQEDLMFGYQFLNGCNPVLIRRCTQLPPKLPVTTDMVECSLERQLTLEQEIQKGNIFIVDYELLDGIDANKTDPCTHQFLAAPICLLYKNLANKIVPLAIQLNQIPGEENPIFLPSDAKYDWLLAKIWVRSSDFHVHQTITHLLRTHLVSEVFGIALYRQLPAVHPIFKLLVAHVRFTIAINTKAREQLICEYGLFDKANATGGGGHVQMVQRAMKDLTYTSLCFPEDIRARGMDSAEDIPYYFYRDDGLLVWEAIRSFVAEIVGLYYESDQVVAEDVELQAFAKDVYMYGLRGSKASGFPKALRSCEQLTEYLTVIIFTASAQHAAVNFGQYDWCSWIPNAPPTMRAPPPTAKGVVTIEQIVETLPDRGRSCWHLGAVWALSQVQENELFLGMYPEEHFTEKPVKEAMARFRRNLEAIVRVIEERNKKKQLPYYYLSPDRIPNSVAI
Protocol: 5-Lipoxygenase inhibiting activity of the compound of the present invention was measured referring to the method for measuring 5-lipoxygenase activity by K. Ochi et al. [Journal of Biological Chemistry (J. Biol. Chem.), 258, 5754(1983)].
Sterilized 2% solution of casein (pH 7) was injected intraperitoneally into Hartley guinea pigs in a volume of 5 ml/100 g body weight. Fifteen hours later, the guinea pigs were killed and peritoneal exudate cells thereof were collected. After the exudate cells were washed with 17 mM Tris--HCl buffer (pH 7.4) containing 0.74% ammonium to remove contaminating erythrocytes in the exudate cells suspension, the cells were washed with buffer A (130 mM NaCl, 1 mM EDTA, 25 mM sodium phosphate, pH 7.4). The washed cells were suspended in buffer B (50 mM sodium phosphate, 1 mM EDTA, 0.1% gelatin, pH 7.4) at 10^8 cells/ml, sonicated and centrifuged at 10,000×g for 20 minutes under the cold atmosphere. The obtained supernatant was further centrifuged at 105,000×g for 60 minutes under the cold atmosphere. The cytosol fraction was used as an enzyme solution.
The enzyme solution was preincubated with the […] in the presence of 1 mM CaCl2, 1 mM reduced gluthathione (GSH) and 2 mM ATP at 30° C. for 5 minutes in 0.2 ml of a reaction mixture and the mixture was further incubated at 30° C. for 5 minutes by adding 20 μM [1-^14 C] arachidonic acid (0.1 μCi) thereto. The test compounds were dissolved in ethanol to give the reaction mixture containing 2% ethanol as a final concentration. Only ethanol was added to the reaction mixture as a control group.
To the reaction mixture were added 2.5 ml of a mixture of chloroform and methanol (2/1 by volume) and 0.3 ml of 40 mM citric acid to stop the reaction. The mixture was vortexed and an organic solvent layer was evaporated to dryness under nitrogen gas. After dissolving the dried organic layer in a fixed amount of the mixture of chloroform and methanol (2/1 by volume), it was spotted on a silica gel plate (Kiesel gel 60F254, E. Merck) and products were separated using a developer (the organic solvent layer of ethyl acetate/water/2,2,4-trimethylpentane/acetic acid=11/10/5/2 by volume). After the radioactive position of the product was determined by means of a radioautography, an area equivalent to that of 5-hydroxyeicosatetraenoic acid (hereinafter referred to as "5-HETE") was scraped off, and then its radioactivity was measured with a liquid scintillation counter. With regarding the amount of the generated 5-HETE as the 5-lipoxygenase inhibiting activity, the inhibition rate (%) in comparison with the control group was calculated according to the following equation. [formula]

[8] = UV absorption spectrum; type: physicochemical; conditions: in methanol; for molar extinction coefficient: at the λ max of the same line
Protocol: Each UV absorption spectrum of the compounds of the present invention was measured according to the conventional method, in which methanol was used as a solvent, and thereby molar extinction coefficient thereof was calculated.

T1 sequence (P00533 25-1210, one chain of several): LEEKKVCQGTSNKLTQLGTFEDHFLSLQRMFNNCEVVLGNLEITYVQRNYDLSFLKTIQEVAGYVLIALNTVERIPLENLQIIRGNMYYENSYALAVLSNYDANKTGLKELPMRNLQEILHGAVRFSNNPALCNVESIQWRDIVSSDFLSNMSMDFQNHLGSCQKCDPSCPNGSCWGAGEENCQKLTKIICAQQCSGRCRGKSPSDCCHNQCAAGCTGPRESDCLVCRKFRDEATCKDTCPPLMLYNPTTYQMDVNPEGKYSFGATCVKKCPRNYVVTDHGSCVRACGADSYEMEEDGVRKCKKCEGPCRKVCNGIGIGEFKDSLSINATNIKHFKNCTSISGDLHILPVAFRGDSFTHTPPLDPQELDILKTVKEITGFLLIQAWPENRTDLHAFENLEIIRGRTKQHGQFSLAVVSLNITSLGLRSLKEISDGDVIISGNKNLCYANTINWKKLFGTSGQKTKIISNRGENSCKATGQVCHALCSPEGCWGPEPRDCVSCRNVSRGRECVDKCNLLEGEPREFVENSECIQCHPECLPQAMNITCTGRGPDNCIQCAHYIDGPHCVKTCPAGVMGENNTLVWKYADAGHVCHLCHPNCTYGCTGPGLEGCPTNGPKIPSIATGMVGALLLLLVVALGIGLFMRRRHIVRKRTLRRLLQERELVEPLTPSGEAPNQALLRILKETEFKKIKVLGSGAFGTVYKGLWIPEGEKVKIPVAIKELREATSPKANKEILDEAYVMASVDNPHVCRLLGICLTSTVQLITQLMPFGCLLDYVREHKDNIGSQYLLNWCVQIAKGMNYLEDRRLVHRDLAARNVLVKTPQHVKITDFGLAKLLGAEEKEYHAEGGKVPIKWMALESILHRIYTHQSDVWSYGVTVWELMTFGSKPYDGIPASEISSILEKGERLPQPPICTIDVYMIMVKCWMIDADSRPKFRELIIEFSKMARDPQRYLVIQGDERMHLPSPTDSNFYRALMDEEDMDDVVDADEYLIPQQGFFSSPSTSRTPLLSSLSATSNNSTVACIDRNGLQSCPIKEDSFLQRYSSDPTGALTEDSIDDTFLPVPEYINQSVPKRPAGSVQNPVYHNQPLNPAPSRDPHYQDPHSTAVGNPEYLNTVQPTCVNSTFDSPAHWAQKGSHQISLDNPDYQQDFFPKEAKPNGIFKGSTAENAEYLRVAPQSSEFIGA

| Structure (SMILES) | inhibition at 10 µM [7] [%] | λ max [8] | molar extinction coefficient [8] | MIC [1] [mg/L] | MIC [2] [mg/L] | MIC [3] [mg/L] | MIC [4] [mg/L] | inhibition at 1 µM [5] [%] | inhibition at 1 µM [6] [%] | inhibition at 10 µM ([6]; 10 μM in the reaction mixture) [%] |
| --- | --- | --- | --- | --- | --- | --- | --- | --- | --- | --- |
| O=C1NC(=S)SC1=Cc1cc(-c2ccccc2)c(O)c(-c2ccccc2)c1 [Compound 1] | – | – | – | ≤ 6 | ≤ 6 | 12 (≈ 30.8 µM) | 6 (≈ 15.4 µM) | 23 | 96 | – |
| N#CC(=Cc1cc(-c2ccccc2)c(O)c(-c2ccccc2)c1)C(N)=O [Compound 15] | – | 271 nm and 348 nm | 2.04 × 10^4 and 2.11 × 10^4 | 60 (≈ 176 µM) | 100 (≈ 294 µM) | 60 (≈ 176 µM) | ≤ 15 | 100 | – | 59 |
| O=C1NN(c2ccccc2)C(=O)C1=Cc1cc(-c2ccccc2)c(O)c(-c2ccccc2)c1 [Compound 19] | – | – | – | 50 (≈ 116 µM) | 100 (≈ 231 µM) | 100 (≈ 231 µM) | ≤ 6 | 74 | 75 | – |

Further lines, with some results ahead:

| inhibition at 10 µM [7] [%] | λ max [8] | molar extinction coefficient [8] | Structure (SMILES) | MIC [1] [mg/L] | MIC [2] [mg/L] | MIC [3] [mg/L] | MIC [4] [mg/L] | inhibition at 1 µM [5] [%] | inhibition at 1 µM [6] [%] | inhibition at 10 µM ([6]; 10 μM in the reaction mixture) [%] |
| --- | --- | --- | --- | --- | --- | --- | --- | --- | --- | --- |
| 85 | 257 nm and 361 nm | 1.87 × 10^4 and 1.80 × 10^4 | O=C1Nc2ccccc2C1=Cc1cc(Cc2ccccc2)c(O)c(Cc2ccccc2)c1 [Compound 4] | ≤ 6 | – | – | – | 74 | – | – |
| 28 | 249 nm and 347 nm | 1.51 × 10^4 and 2.40 × 10^4 | N#CC(=Cc1cc(Cc2ccccc2)c(O)c(Cc2ccccc2)c1)C(N)=O [Compound 16] | ≤ 15 | ≤ 15 | ≤ 15 | ≤ 15 | 100 | – | – |
| – | 304 nm | 1.87 × 10^4 | O=C1NCCC1=Cc1cc(Cc2ccccc2)c(O)c(Cc2ccccc2)c1 [Compound 18] | – | – | – | – | 87 | – | – |

Reference: patent US5089516A, “1-phenyl-3,5-pyrazolidinedione hydroxystyrene compounds which have tyrosine kinase inhibiting activity” (Kanegafuchi Kagaku Kogyo Kabushiki Kaisha, priority 1987, dated 1992)
